Assay results reported in patent publication US20130053245A1, “Method and Substance for Promoting Plant Growth” (World Grow International Corp., priority 2009, published 2013).

System: baby corn seeds
Assay: root length developed on baby corn seeds after treatment with homeopathic growth stimulant
Assay type: in vivo
Method: The length of roots that developed on the baby corn seeds, after treatment of the seeds with various concentrations of homeopathic growth stimulant, was measured. […] This critical transition indicates a fundamental difference in the chemical structure of the resulting plant enhancement substance by molecular cloistering. The criticality and creation of a chemically different substance brought about by dilution is indicated by the synergy of combining the resulting dilution medium and dissolved homeopathic growth stimulant with a nutrient source such as a fertilizer. This synergy is evidenced by the multiplication of growth increase in target plants resulting from the combination. […] However, treatment of a target plant using a combination of dilution medium and dissolved homeopathic growth stimulant along with a nutrient source increases plant growth tenfold.

O.O.O.O.O.O=S(=O)([O-])[O-].[Cu+2] [CuSO4, copper sulfate pentahydrate (CuSO4.5H2O)]
root development (high concentration): arrests root development | root growth (length of roots) (higher concentrations of CuSO4 in the homeopathic growth stimulant): arrest root growth | root growth (homeopathic concentration (3-12X potency)): acts as a root growth enhancer | root growth (length of roots) (lower concentrations of CuSO4, below the homeopathic barrier or threshold concentration): enhance root growth
